Measured values from publication PMC2895808 (Vaccine, 2010).
Ends that are not written are not given here.

Columns and labels:
Assay in all cases: biochemical
HLA A*0202 = HLA A*0202 (Homo sapiens, UniProt P04439, D140Y/D185E/D98H/E176V/E277Q/G131W/G231S/I119L/I121R/I166T/I218V/L180W/L300P/L318F/N151K/N90K/P208A/P217A/Q67R/Q86G/Q94H/R138H/R169H/T345S)
HLA A*6802 = HLA A*6802 (Homo sapiens, UniProt P04439, A269V/D140Y/D185E/E176V/E277Q/E87N/F33Y/G231S/I121R/I166T/I218V/L180W/L300P/L318F/N151K/P208A/P217A/Q86R/R138H/R169H/S129P/T345S/V36M)
HLA A*0203 = HLA A*0203 (Homo sapiens, UniProt P04439, A173T/D140Y/D185E/D98H/E277Q/G131W/G231S/I119V/I121R/I166T/I218V/L180W/L300P/L318F/N151K/N90K/P208A/P217A/Q86G/Q94H/R138H/R169H/T345S)
HLA B*4201 = HLA B*4201 (Homo sapiens, UniProt P01889, D138N/E176V/E187T/K202T/R180D)
HLA B*0702 = HLA B*0702 (Homo sapiens, UniProt P01889)
HLA B*5301 = HLA B*5301 (Homo sapiens, UniProt P01889, A329T/A93T/A95T/C349S/D201E/D98Y/E176V/E187L/E204Q/E69T/G107R/I218V/K202T/L105A/L119I/N104I/Q94N/R106L/R155S/R180L/S101N/S121R/S35A/S48A/T118I/V127L/V306I/V36M/Y140S/Y91F)
HLA B*5101 = HLA B*5101 (Homo sapiens, UniProt P01889, A329T/A93T/A95T/C349S/D138N/D201E/D98Y/E187L/E204Q/E69T/G107R/I218V/K202T/L105A/L119W/N104I/Q94N/R106L/R155S/R180L/S101N/S121T/S35A/S48A/V306I/V36M/Y195H/Y91F)
HLA B*5401 = HLA B*5401 (Homo sapiens, UniProt P01889, A329T/C349S/D138N/D201E/E176V/E187T/E204Q/E69G/I76V/K202T/L119W/R155S/R180L/S121T/S35A/S48A/V127L/V306I/V36M/Y140L)
HLA B*3501 = HLA B*3501 (Homo sapiens, UniProt P01889, A329T/A93T/A95T/C349S/D201E/D98Y/E176V/E187L/E204Q/E69T/I218V/K202T/L119I/Q94N/R155S/R180L/S121R/S35A/S48A/T118I/V127L/V306I/V36M/Y140S/Y91F)
HLA B*3503 = HLA B*3503 (Homo sapiens, UniProt P01889, A329T/A93T/A95T/C349S/D201E/D98Y/E176V/E187L/E204Q/E69T/I218V/K202T/L119I/Q94N/R155S/R180L/S121R/S35A/S48A/T118I/V127L/V306I/V36M/Y140F/Y91F)

| Compound | IC50 (HLA A*0202) [nM] | IC50 (HLA A*6802) [nM] | IC50 (HLA A*0203) [nM] | IC50 (HLA B*4201) [nM] | IC50 (HLA B*0702) [nM] | IC50 (HLA B*5301) [nM] | IC50 (HLA B*5101) [nM] | IC50 (HLA B*5401) [nM] | IC50 (HLA B*3501) [nM] | IC50 (HLA B*3503) [nM] |
| --- | --- | --- | --- | --- | --- | --- | --- | --- | --- | --- |
| CSCC[C@H](NC(=O)[C@H](Cc1ccccc1)NC(=O)[C@@H](NC(=O)[C@@H](NC(=O)[C@H](Cc1ccccc1)NC(=O)[C@@H](NC(=O)[C@@H](N)C(C)C)C(C)C)C(C)C)C(C)C)C(=O)NCC(=O)N[C@H](C(=O)O)C(C)C [Peptide 7103.0001] | 3450 | 39 | – | – | – | – | – | – | – | – |
| CC(C)C[C@H](NC(=O)[C@H](Cc1ccccc1)NC(=O)[C@@H](NC(=O)[C@@H](NC(=O)[C@H](Cc1ccccc1)NC(=O)[C@@H]1CCCN1C(=O)[C@@H](NC(=O)[C@H](CC(C)C)NC(=O)[C@@H](N)Cc1ccccc1)C(C)C)C(C)C)C(C)C)C(=O)O [Peptide 7103.0003] | < 0.1 | 1.5 | 0.11 | – | – | – | – | – | – | – |
| HPGSVNEFDF [HF10] | – | – | – | 877 | 3620 | 5520 | 14700 | 854 | 2090 | 11500 |
